US20070219214A1, “Dual NK2/NK3-antagonists, pharmaceutical compositions comprising them, and processes for their preparation” (Solvay pharmaceuticals GmbH, priority 2006, published 2007)

Key:
[1] = molecular target: T1, human NK3 receptor (Homo sapiens, UniProt P29371); experiment: Functional cellular test, Ca2+ measurements using aequorin for NK3 activity; format: cell-based; set-up: expressed in transfected cells; host or cells: cell line co-expressing mitochondrially targeted apoaequorin (CHO according to b76/b77); conditions: read-out: pA2 data for NK3 (converted)
T1 sequence (P29371 1-465): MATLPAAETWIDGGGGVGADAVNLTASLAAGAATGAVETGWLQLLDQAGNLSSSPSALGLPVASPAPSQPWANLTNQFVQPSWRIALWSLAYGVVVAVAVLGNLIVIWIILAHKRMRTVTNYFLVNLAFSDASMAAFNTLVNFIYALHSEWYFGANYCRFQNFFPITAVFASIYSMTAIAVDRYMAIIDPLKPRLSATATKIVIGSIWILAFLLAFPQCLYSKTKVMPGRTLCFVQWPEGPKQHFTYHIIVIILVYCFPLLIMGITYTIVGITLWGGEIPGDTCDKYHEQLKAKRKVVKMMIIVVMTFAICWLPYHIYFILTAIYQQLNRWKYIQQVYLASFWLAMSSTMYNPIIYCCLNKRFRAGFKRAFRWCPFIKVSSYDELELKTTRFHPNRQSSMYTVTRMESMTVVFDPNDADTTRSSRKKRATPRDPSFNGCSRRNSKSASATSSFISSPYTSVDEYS

[2] = molecular target: T2, human NK2-receptor (Homo sapiens, UniProt P21452); experiment: Functional cellular test, Ca2+ measurements using FLIPR for NK2 activity;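 also: CHO cells stably expressing the human receptor, loaded with a calcium dye, antagonist inhibition of ligand-evoked intracellular calcium rise read as peak fluorescence change on FLIPR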
T2 sequence (P21452 1-398): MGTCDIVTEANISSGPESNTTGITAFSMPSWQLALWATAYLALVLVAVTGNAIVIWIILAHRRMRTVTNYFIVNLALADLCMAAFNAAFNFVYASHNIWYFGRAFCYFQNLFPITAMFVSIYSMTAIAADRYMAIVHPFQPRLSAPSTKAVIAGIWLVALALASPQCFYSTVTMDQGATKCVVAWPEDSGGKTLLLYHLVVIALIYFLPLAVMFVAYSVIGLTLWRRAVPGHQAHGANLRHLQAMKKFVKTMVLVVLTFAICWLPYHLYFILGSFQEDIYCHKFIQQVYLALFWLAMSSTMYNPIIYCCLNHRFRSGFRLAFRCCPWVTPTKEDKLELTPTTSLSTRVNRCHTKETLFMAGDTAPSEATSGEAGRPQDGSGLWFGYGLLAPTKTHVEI

[3] = molecular target: T3, NK3-receptor (Cavia porcellus, UniProt P30098); experiment: NK-3-receptor-antagonistic effectiveness in vivo, senktide-induced hypertension in guinea pigs; conditions: guinea pig, iv; read-out: ID50 (iv), inhibition of blood pressure
T3 construct: from tissue; host or cells: whole animal (Dunkin Hartley guinea pigs), in vivo
T3 sequence (P30098 1-440): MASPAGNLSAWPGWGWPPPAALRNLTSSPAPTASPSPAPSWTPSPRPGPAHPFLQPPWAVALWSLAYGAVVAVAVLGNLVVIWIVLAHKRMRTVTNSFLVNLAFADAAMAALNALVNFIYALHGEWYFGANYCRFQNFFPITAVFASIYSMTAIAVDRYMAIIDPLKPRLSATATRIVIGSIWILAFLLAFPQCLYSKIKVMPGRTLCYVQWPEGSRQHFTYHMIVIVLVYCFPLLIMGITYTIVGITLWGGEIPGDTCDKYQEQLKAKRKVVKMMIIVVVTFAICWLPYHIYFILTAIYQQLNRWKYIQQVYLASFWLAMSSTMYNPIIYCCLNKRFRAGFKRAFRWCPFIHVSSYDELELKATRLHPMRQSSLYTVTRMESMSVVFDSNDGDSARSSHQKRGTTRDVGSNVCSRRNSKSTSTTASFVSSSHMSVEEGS
Protocol: 9. Determination of the NK-3-Receptor-Antagonistic Effectiveness of the Test Substances In Vivo (Reduction of Blood Pressure in Guinea-Pigs with Senktide-Induced Hypertension)
NK3 agonists increase the blood pressure in guinea pigs. The senktide-induced hypertension can be antagonized by administering compounds with NK3-antagonistic properties. Measuring the level of hypertension is indicative of the degree of activity of the test compounds. The effect of the tested compound is assessed in the same experiment to exclude an additional hypertensional effect.
Male Dunkin Hartley guinea pigs with a body weight between 450 and 550 g were anesthetized with Ketamin (200 mg/kg i.m.; Aescoket 10%) and the left carotid artery and left jugular vein were cannulated for blood pressure measurement and drug application, respectively. The animals were allowed to breathe spontaneously. Blood pressure was measured with a strain gauge transducer connected to a computer via an amplifier.
For oral administration, vehicle (1% methylcellulose) or test compound was administered in a dose volume of 5 ml/kg. Forty five minutes thereafter, anesthesia was induced and the carotid artery and jugular vein were cannulated.
For intravenous administration, the test compounds were dissolved in 40% hydroxypropyl-β-cyclodextrine (HPCD) containing 10% DMSO, diluted with saline and administered intravenously in cumulative dose ranges. A vehicle group of animals received the corresponding HPCD/DMSO solutions instead of the test compound. For oral administration, the test compound was suspended in 1% methylcellulose. A vehicle group of animals received the corresponding […] of the test compound.

[4] = molecular target: T2, human NK2-receptor; experiment: Binding potency of the test substances to NK2-receptors in vitro ([3H]-SR 48968 displacement); set-up: expressed in transfected cells; host or cells: CHO cells (membrane preparation); conditions: human NK2-receptor in CHO cell membranes, [3H]-SR 48968 (saredutant); average of at least three measurements; read-out: pKi, binding potency to NK2-receptors (converted)
Procedure, shortened: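 Membranes from CHO cells stably expressing the receptor were incubated with [3H]-saredutant plus test compound, then filtered and counted by liquid scintillation. Nonspecific binding defined with 0.1 μmol/l unlabeled saredutant. IC50 from displacement converted to Ki via Cheng-Prusoff and reported as pKi, averaged over measurements.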

Q: With CNC(=O)C1(N2CCCCC2)CCN(CC[C@H](CN(C)C(=O)c2ccccc2)c2ccc(Cl)c(Cl)c2)CC1 [compound 2] as the molecule, how does the Kb [1] read?
A: 31.6 nM

Q: What about the Kb [2] of the same molecule?
A: 0.501 nM

Q: And the ED50 [3]?
A: 1.98 mg/kg

Q: And the Ki [4]?
A: 0.398 nM
